From PubChem BioAssay AID2060350 (Molecular Pharmacology Branch, DTP, NCI, 2025)

Test system: PDC 521955-158-R6-J3 spheroids, viability
Assay: Anticancer human tumor 521955-158-R6-J3-PDC patient-derived pancreatic carcinoma cell line growth inhibition [TAK]
Settings: spheroids with HUVEC and MSC; for IC50: curve of first compound; for viability, T/C: stronger effect = lower value
How it was run: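 Drug combinations, each paired with TAK-243 or ipatasertib, were tested on multi-cell spheroids of 60% malignant cells, 25% HUVEC and 15% hMSC. Top concentrations were at or near the clinical Cmax (10 microM if undetermined), decreasing by half-log; viability is given as % test/control.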
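Note: spheroids exposed to drugs for 7 days before readout.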
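Throughout, for viability, T/C: 100% = DMSO vehicle control viability.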

In the case of `CC(=O)Nc1cccc(-n2c(=O)n(C3CC3)c(=O)c3c(Nc4ccc(I)cc4F)n(C)c(=O)c(C)c32)c1` + CC(C)NCC(C(=O)N1CCN(c2ncnc3c2C(C)CC3O)CC1)c1ccc(Cl)cc1, the IC50 (second compound 0.3 µM) is reported as 7.12 nM, the IC50 (second compound 0.949 µM) is reported as 2.58 nM and the IC50 (second compound 3 µM) is reported as 1.82 nM. It also gave an IC50 (second compound 9.49 µM) of 2.3 nM, an IC50 (second compound 30 µM) of 1.64 nM and a viability, T/C (second compound 0.3 µM, first compound 94.9 pM) of 79.6%. The viability, T/C (second compound 0.3 µM, first compound 0.0003 µM) was 75.7%, the viability, T/C (second compound 0.3 µM, first compound 0.000949 µM) was 67.9% and the viability, T/C (second compound 0.3 µM, first compound 0.003 µM) was 58.8%. The viability, T/C (second compound 0.3 µM, first compound 0.00949 µM) was 46.8%, the viability, T/C (second compound 0.3 µM, first compound 0.03 µM) was 35.6% and the viability, T/C (second compound 0.949 µM, first compound 94.9 pM) was 85.6%. The viability, T/C (second compound 0.949 µM, first compound 0.0003 µM) was 73.7%, the viability, T/C (second compound 0.949 µM, first compound 0.000949 µM) was 58.5% and the viability, T/C (second compound 0.949 µM, first compound 0.003 µM) was 49%. For the same compound, the viability, T/C (second compound 0.949 µM, first compound 0.00949 µM) was 38.3%, the viability, T/C (second compound 0.949 µM, first compound 0.03 µM) was 25.2% and the viability, T/C (second compound 3 µM, first compound 94.9 pM) was 78.9%. The viability, T/C (second compound 3 µM, first compound 0.0003 µM) was 62.1%, the viability, T/C (second compound 3 µM, first compound 0.000949 µM) was 54.4% and the viability, T/C (second compound 3 µM, first compound 0.003 µM) was 49%. It also gave a viability, T/C (second compound 3 µM, first compound 0.00949 µM) of 37.6%, a viability, T/C (second compound 3 µM, first compound 0.03 µM) of 22.2% and a viability, T/C (second compound 9.49 µM, first compound 94.9 pM) of 77.9%. It also gave a viability, T/C (second compound 9.49 µM, first compound 0.0003 µM) of 62.8%, a viability, T/C (second compound 9.49 µM, first compound 0.000949 µM) of 53.1% and a viability, T/C (second compound 9.49 µM, first compound 0.003 µM) of 53.4%. For the same compound, the viability, T/C (second compound 9.49 µM, first compound 0.00949 µM) was 37.4%, the viability, T/C (second compound 9.49 µM, first compound 0.03 µM) was 15.2% and the viability, T/C (second compound 30 µM, first compound 94.9 pM) was 71.9%. The viability, T/C (second compound 30 µM, first compound 0.0003 µM) was 59.6%, the viability, T/C (second compound 30 µM, first compound 0.000949 µM) was 55.8% and the viability, T/C (second compound 30 µM, first compound 0.003 µM) was 47.8%. The viability, T/C (second compound 30 µM, first compound 0.00949 µM) was 28.5% and the viability, T/C (second compound 30 µM, first compound 0.03 µM) was 16.1%.
